Where two headings read alike, the source gives them in different places.
Assay: Determination of logD7.4 (miniaturized shake flask, octanol–PBS)
Type: physicochemical
Protocol: Detailed descriptions of the materials and methods are provided in the supporting information. Multifunctional rhodamine–HaloTag ligands (13HTL–16HTL and 18HTL–20HTL) were synthesized using palladium-catalyzed cross-coupling reactions to install 3-carboxyazetidine moieties onto rhodamine scaffolds, followed by amide bond formation with biotin–PEG2–NH2, (S)-JQ1–PEG2–NH2, or (R)-JQ1–PEG2–NH2. Spectroscopic properties (λabs, λem, ε, and Φf) were determined in 10 mM HEPES, pH 7.3. The lactone–zwitterion equilibrium constants (KL–Z) were measured in 1:1 (v/v) dioxane–water mixtures. Octanol–water distribution coefficients (logD7.4) were determined by miniaturized shake-flask partitioning experiments using PBS (pH 7.4) and 1-octanol. Cell culture experiments employed HEK293T, U2OS, and Neuro2a cells transfected with HaloTag fusion constructs and labeled with ligands (100 nM to 1 μM, 0.5 to 2 h at 37 °C), followed by fluorescence microscopy using confocal or lattice light-sheet microscopy. Affinity purification studies utilized streptavidin magnetic beads to capture biotin-labeled HaloTag conjugates, with analysis by SDS-PAGE and in-gel fluorescence detection. […]
Reported values are averages of at least two measurements.
Determination of logD7.4. The log of distribution coefficients at pH 7.4 was determined in octanol–phosphate-buffered saline (PBS) using a miniaturized shake flask setup described previously.6, 7 Briefly, 150 mL each of octanol and PBS pH 7.4 were stirred vigorously for 12–16 h. The layers were allowed to stand for at least 24 h for phase separation. The separated layers were collected and served as PBS saturated with octanol (PBS*) and octanol saturated with PBS (octanol*). Stock solutions (1 mM or 5 mM) of ligands were prepared in DMSO and diluted in PBS* to obtain 1 μM or 10 μM (3–5 mL) of the standard (std). This standard was used to prepare appropriate dilutions using octanol*, in triplicate, in 2-mL glass vials. The leftover standard was used to determine the standard concentration (Cstd). The vials were vortexed for 1 min and shaken horizontally at 700 rpm for 2 h. The vials were then shaken upright at 150 rpm for 2 h to allow the phases to separate. The octanol* layer was pipetted out, and the PBS* layer was used for further analyses. The concentrations of ligands in the standard and PBS* (CPBS*) were determined via fluorescence measurements of 200 μL of PBS* or std in 96-well plates on the Cytation 5 Multimode Plate Reader (BioTek). For Si-rhodamine containing ligands, 2–20 μL of […]
trifluoroacetic acid was added to each well of the 96-well plate prior to the fluorescence measurements. Reported values are averages of at least two measurements. The logD7.4 was obtained as described previously using equation 2: logD = log *’(" × r − 1. +)*+∗ / (2) […]
where Cstd is the standard concentration in PBS, CPBS* is the concentration in PBS after partitioning, r is the dilution factor of the standard solution, VPBS* is the volume of PBS used in the partitioning, and Voctanol* is the volume of octanol used in the partitioning.
Plasmid construction for mitochondria imaging and affinity purification. HaloTag, amplified from the pHTC HaloTag CMV-neo Vector (Promega; G7711) and monomeric-superfolder green fluorescent protein (msGFP; lab stock), was fused to the mitochondrial targeting signal from OMP25,8 interspacing flexible GS(GSS)4 linkers between each domain by PCR Splicing by Overlap Extension (SOE). This construct was subcloned into hSynapsin promoter bearing a copy of FUGW.9 FUGW was a gift from David Baltimore (Addgene plasmid # 14883; RRID:
Addgene_14883).10 This construct was designated as pF(UG) hSyn HaloTag-TEV-4×GS-msGFP- […]
HEK293T cell culture. HEK293T cells (ATCC) were passaged before 80% confluency by trypsinization (Corning; 25-053-CI) and trituration. The cell suspension was then plated on glass coverslips (Warner instruments; 64-0734, CS-18R17) coated with poly-D-lysine (Thermofisher; […]

[1] = 1-octanol/PBS, octanol–PBS pH 7.4, miniaturized shake flask, read-out: logD7.4

Row | Compound | logD (pH 7.4) | logD [1]
1 | C[Si]1(C)c2cc(N3CC(F)C3)ccc2C2(OC(=O)c3ccc(C(=O)NCCOCCOCCCCCCCl)cc32)c2ccc(N3CC(F)C3)cc21 [6HTL, JF635–HaloTag ligand, reference compound] | 3.82 | –
2 | O=C(CCCCC1SCC2NC(=O)NC21)NCCOCCOCCNC(=O)C1C[N+](=c2ccc3c(-c4cc(C(=O)NCCOCCOCCCCCCCl)ccc4C(=O)[O-])c4ccc(N5CCC5)cc4oc-3c2)C1 (centres unmarked) [13HTL, biotin–JF549–HaloTag ligand] | – | 0.07
3 | CC1(C)C2=CC(=[N+]3CC(C(=O)NCCOCCOCCNC(=O)CCCC[C@@H]4SC[C@@H]5NC(=O)N[C@@H]54)C3)C=CC2=C(c2cc(C(=O)NCCOCCOCCCCCCCl)ccc2C(=O)[O-])c2ccc(N3CCC3)cc21 (some centres unmarked) [14HTL, biotin–JF608–HaloTag ligand] | – | 2.63
4 | C[Si]1(C)C2=CC(=[N+]3CC(C(=O)NCCOCCOCCNC(=O)CCCC[C@@H]4SC[C@@H]5NC(=O)N[C@@H]54)C3)C=CC2=C(c2cc(C(=O)NCCOCCOCCCCCCCl)ccc2C(=O)[O-])c2ccc(N3CCC3)cc21 (some centres unmarked) [15HTL, biotin–JF646–HaloTag ligand] | 3.06 | –
5 | C[Si]1(C)C2=CC(=[N+]3CC(F)(C(=O)NCCOCCOCCNC(=O)CCCC[C@@H]4SC[C@@H]5NC(=O)N[C@@H]54)C3)C=CC2=C(c2cc(C(=O)NCCOCCOCCCCCCCl)ccc2C(=O)[O-])c2ccc(N3CC(F)C3)cc21 (some centres unmarked) [16HTL, biotin–JF635–HaloTag ligand] | 3.6 | –
